Assay [1] has as its system human peripheral blood mononuclear cells (PBMC). The assay can be described thus: Respiratory burst (hydrogen peroxide generation), human PBMC. The format is cell-based. As to conditions: alone and in response to PMA 10 ng/ml; 4 hours exposure. The method, then:
The respiratory burst of leukocytes (macrophages and polymorphonuclear neutrophils) is one component of the mediator system used to kill bacteria. As with phagocytosis, the level of this respiratory burst activity in resident macrophages is low. […] Studies were conducted to assess the effect of in vitro exposure of murine or rat peritoneal macrophages and human peripheral blood mononuclear cells (PBMC) to various concentrations of AII on the capacity to generate hydrogen peroxide via the respiratory burst system. For the human studies, five different donors were examined.
The murine or rat peritoneal cells were harvested by lavage with 5-15 ml of cold PBS with 0.5% bovine serum albumin. The human PBMC were harvested by venipuncture from normal human volunteers and isolated from peripheral blood by Ficoll Hypaque density centrifugation. After isolation, the cells were resuspended at 1×10^6 cells/ml and placed at 100 μl per well into 96 well plates. The cells were incubated with various concentrations of AII or AII analogues for 4 hours at 37° C. The cells were then preloaded with a fluorescent probe for hydrogen peroxide, 2,7 dichlorofluorescein acetate, which is nonfluorescent in the absence of hydrogen peroxide. Fifteen minutes later, 10 ng/ml of phorbol myristate acetate (+PMA) or PBS (−PMA) was added to stimulate the production of hydrogen peroxide. One hour after stimulation the level of fluorescence produced was measured on a Cytofluor 2350 multiwell fluorometer.

In a further assay the test system is AT2 receptor. Conditions: experimental models tested; cited from earlier work.
The subject of assay [2] is Rat Peritoneal Macrophages. The assay can be described thus: Phagocytosis of opsonized yeast by rat peritoneal macrophages. The format is cell-based, Sprague Dawley rats. The method, then:
Resident peritoneal macrophages have very little phagocytic activity. Exposure of macrophages to inflammatory or activating agents will increase this macrophage function. Resident peritoneal macrophages were harvested from C57B1/6 mice or Sprague Dawley rats and resuspended at a concentration of 1×10^6 cells/ml in phosphate buffered saline (PBS). Five separate 0.5 ml cell aliquots were placed on a glass coverslip in a 35 mm petri dish. Prior to incubation, either 0.5 ml of PBS, AII, or AII analogues or fragments at between 1-1000 ug/ml final concentration was added to the individual cover slips. The dishes containing the cover slips were then incubated at 37° C. for 4 hours, after which the cover slips were washed 3 to 6 times with PBS. Opsonized yeast particles (Sigma Chemical Co.) (yeast opsonized with adult serum from the same species as that under study) were added to the cover slips and incubated for 2 hours, after which the cover slips were again washed with PBS and inverted onto a glass slide. The number of macrophages that ingested yeast and the number of yeast per macrophage ingested was then determined microscopically. At least 100 macrophages per coverslip were counted. The data from this study are summarized in Tables 3 and 4 and FIGS. 1 and 2.

The nature of assay [3]: Test of AII fragments for effectiveness (method not described).

Here are results for seven substances from patent US7744927B2, “Methods of promoting hematopoietic and mesenchymal cell proliferation and differentiation” (University of Southern California, priority 1997, dated 2010).

Non-standard residues stand in square brackets, D forms with d. No end group written: not given here. Phe(4-NH2) = Nc1ccc(C[C@H](N)C(=O)O)cc1

“Asp-Arg-Val-Tyr-Ile-His-Pro (DRVYIHP) [AII(1-7)]”: in assay [1], the “ability to generate hydrogen peroxide (respiratory burst)” value (from here on “ability to generate hydrogen peroxide”) is “an increase in the respiratory burst capacity was observed”.

Take “Asp-Arg-Val-Tyr-Ile-Xaa-Pro-Phe (DRVYI[Phe(4-NH2)]PF) [(p-NH2-Phe)6-AII]”: the binding characteristics result in the assay with AT2 receptor is recorded as “comparable to AT2 antagonists”.

For DRPYIHPF [GSD 24B], the “ability to generate hydrogen peroxide” value in assay [1] was “an increase in the respiratory burst capacity was observed”. Further, in assay [2] (peptide 100 μg/ml), the “#/Cell” value is recorded as 0.58, the “% w/Yeast” value was 23.1%, the “Number of Macrophages with Yeast (Yeast Number) 0” value (“Number … (Yeast Number) 0” for short) came out at 100 and the “Number of Macrophages with Yeast (Yeast Number) 1-3” value (from here on “Number … (Yeast Number) 1-3”) is listed as 25. Also, the “Number of Macrophages with Yeast (Yeast Number) 4-6” value (from here on “Number … (Yeast Number) 4-6”) in assay [2] (peptide 100 μg/ml) was found to be 5. Besides, in assay [2] (peptide 1000 μg/ml), the “#/Cell” value is given as 0.18, the “% w/Yeast” value stood at 9.1%, the “Number … (Yeast Number) 1-3” value is on record as 10 and the “Number … (Yeast Number) 4-6” value stood at 0.

With DRVYIHPI [GSD 28], the “ability to generate hydrogen peroxide” value in assay [1] is recorded as “an increase in the respiratory burst capacity was observed”. In assay [2] (peptide 100 μg/ml), the “#/Cell” value is on record as 0.02, the “% w/Yeast” value came out at 1.0%, the “Number … (Yeast Number) 0” value was 100 and the “Number … (Yeast Number) 1-3” value is on record as 1. For the same substance, the “Number … (Yeast Number) 4-6” value in assay [2] (peptide 100 μg/ml) was found to be 0.

In the case of His-Pro-Phe (HPF) [AII(6-8)], the effectiveness entry in assay [3] was “found not to be effective”.

With RVYAHPF [GSD 22A], the “ability to generate hydrogen peroxide” value in assay [1] was “an increase in the respiratory burst capacity was observed”. Moreover, in assay [2] (peptide 100 μg/ml), the “#/Cell” value was 0.59, the “% w/Yeast” value came out at 23.7%, the “Number … (Yeast Number) 0” value was determined as 100 and the “Number … (Yeast Number) 1-3” value came to 26. Further, in assay [2] (peptide 100 μg/ml), the “Number … (Yeast Number) 4-6” value was 5. In assay [2] (peptide 1000 μg/ml), the “#/Cell” value is listed as 0.40, the “% w/Yeast” value was found to be 18.7%, the “Number … (Yeast Number) 1-3” value was 22 and the “Number … (Yeast Number) 4-6” value came out at 1.

For “Tyr-Ile-His-Pro-Phe (YIHPF; printed: Tyr-Ile-His-Pro-Phe) [AII(4-8)]”, the effectiveness result in assay [3] is reported as “found not to be effective”.
